From article PMC12736120, “First-in-Human Phase I Clinical Trial of SLC-391, a Novel and Selective AXL Inhibitor, in Patients with Advanced Solid Tumours” (Pharmaceuticals, 2025)
Where two headings read alike, the source gives them in different places.

Assay: Plasma pharmacokinetics, QD and BID cohorts (non-compartmental)
Type: in vivo, human
Conditions: human, plasma, oral
Method: PK parameters were calculated by standard non-compartmental methods for SLC-391. Due to the long half-life of SLC-391 compared to the dosing interval, it was not possible to calculate a number of PK parameters, including plasma half-life and rate of elimination. Accumulation was assessed from the mean accumulation ratio factor (AR factor) calculated as the repeated dose (C1D21) mean value/single dose (C1D1) mean value for the PK parameters Cmax, AUC0–12, and AUC0–last for each dose group.
During QD dosing, blood samples for determination of SLC-391 plasma concentrations were collected predose and at 0.5, 1, 2, 3, 4, 6, 8, and 24 h after SLC-391 administration on cycle 1 day 1 (C1D1) and cycle 1 day 21 (C1D21). During BID dosing, blood samples were collected predose and at 1, 2, 3, 4, 6, 8, and 12 h after the first daily dose (before the second daily dose). Where possible, further samples were then collected at 13, 14, 22, and 24 h after the initial dose (predose C1D2). Blood samples were also collected on C1D21 (steady state) predose and at 1, 2, 3, 4, 6, 8, and 12 h after the first daily dose (before the second daily dose). Where possible, further samples were then collected at 13, 14, 22, and 24 h after the initial C1D21 dose (predose C2D1). An additional blood sample was also taken, where possible, at the end of treatment (EOT) visit.
After collection, blood samples were centrifuged, and plasma was separated and stored at −80 °C. Plasma concentrations of SLC-391 were measured by a validated analytical method involving liquid–liquid extraction followed by high-performance liquid chromatography (HPLC)–mass/mass spectroscopy assay using a Water Quattro Premier tandem quadrupole mass spectroscopy with Waters MassLynx data acquisition and processing software. Plasma analysis was carried out by Microconstants (San Diego, CA, USA) in compliance with the US FDA GLP regulations. The calibration range of the assay was from 0.100 to 100 ng/mL. Quality control samples prepared at 4 different analyte concentrations were analysed with each batch of samples against a separately prepared calibration standard. PK parameters were collected following single (day 1) and repeat dose (day 21) administration. PK parameters were summarised with appropriate descriptive statistics where possible (e.g., mean, geometric mean, median, maximum, minimum, and coefficient of variation). Descriptive PK parameters were determined by standard non-compartmental methods based on the concentration–time data of each subject. The nominal time was used for descriptive statistics calculations, and the actual sample collection times were used in PK analyses. PK analyses were performed using validated Phoenix WinNonlin Professional 8.3 (Certara, L.P., St. Louis, MO, USA).

Compound: Nc1ncc(-c2cnn(C3CCNCC3)c2)cc1-c1nnc(CC2CC2)o1 [SLC-391, 3-(5-[cyclopropylmethyl]-1,3,4-oxadiazol-2-yl)-5-(1-[piperidin-4-yl]-1H-pyrazol-4-yl)-pyridin-2-amine]
- Cmax (110 mg, 110 mg BID, C1D1, median, n=3, plasma, read-out: Cmax): 93.1 ng/mL
- Tmax (110 mg, 110 mg BID, C1D1, median, n=3, plasma, read-out: Tmax): 3 h
- AUC (110 mg, 110 mg BID, C1D21, mean, n=3, plasma, read-out: AUC0–12): 2260 ng·h/mL
- AUC(0-t) (110 mg, 110 mg BID, C1D21, mean, n=3, plasma, read-out: AUC0–last): 4280 ng·h/mL
- Cmax (110 mg, 110 mg BID, C1D21, mean, n=3, plasma, read-out: Cmax): 249 ng/mL
- Tmax (110 mg, 110 mg BID, C1D21, mean, n=3, plasma, read-out: Tmax): 2.4 h
- AUC (110 mg, 110 mg BID, C1D21, median, n=3, plasma, read-out: AUC0–12): 1390 ng·h/mL
- AUC(0-t) (110 mg, 110 mg BID, C1D21, median, n=3, plasma, read-out: AUC0–last): 2560 ng·h/mL
- Cmax (110 mg, 110 mg BID, C1D21, median, n=3, plasma, read-out: Cmax): 187 ng/mL
- Tmax (110 mg, 110 mg BID, C1D21, median, n=3, plasma, read-out: Tmax): 2.1 h
- AUC (125 mg, QD, C1D1, read-out: AUC0–12, Mean): 672 ng·h/mL
- AUC (125 mg, QD, C1D1, read-out: AUC0–12, Median): 877 ng·h/mL
- AUC(0-t) (125 mg, QD, C1D1, read-out: AUC0–last, Mean): 1040 ng·h/mL
- AUC(0-t) (125 mg, QD, C1D1, read-out: AUC0–last, Median): 1280 ng·h/mL
- Cmax (125 mg, QD, C1D1, read-out: Cmax, Mean): 103 ng/mL
- Cmax (125 mg, QD, C1D1, read-out: Cmax, Median): 123 ng/mL
- Tmax (125 mg, QD, C1D1, read-out: Tmax, Mean): 2 h
- Tmax (125 mg, QD, C1D1, read-out: Tmax, Median): 2.1 h
- AUC (125 mg, QD, C1D21, read-out: AUC0–12, Mean): 1120 ng·h/mL
- AUC (125 mg, QD, C1D21, read-out: AUC0–12, Median): 1380 ng·h/mL
- AUC(0-t) (125 mg, QD, C1D21, read-out: AUC0–last, Mean): 1840 ng·h/mL
- AUC(0-t) (125 mg, QD, C1D21, read-out: AUC0–last, Median): 2340 ng·h/mL
- Cmax (125 mg, QD, C1D21, read-out: Cmax, Mean): 147 ng/mL
- Cmax (125 mg, QD, C1D21, read-out: Cmax, Median): 188 ng/mL
- Tmax (125 mg, QD, C1D21, read-out: Tmax, Mean): 2 h
- Tmax (125 mg, QD, C1D21, read-out: Tmax, Median): 2 h
- AUC (150 mg, 150 mg BID, C1D1, mean, n=5, plasma, read-out: AUC0–12): 1050 ng·h/mL
- AUC(0-t) (150 mg, 150 mg BID, C1D1, mean, n=6, plasma, read-out: AUC0–last): 2330 ng·h/mL
- Cmax (150 mg, 150 mg BID, C1D1, mean, n=6, plasma, read-out: Cmax): 236 ng/mL
- Tmax (150 mg, 150 mg BID, C1D1, mean, n=6, plasma, read-out: Tmax): 9 h
- AUC (150 mg, 150 mg BID, C1D1, median, n=5, plasma, read-out: AUC0–12): 1070 ng·h/mL
- AUC(0-t) (150 mg, 150 mg BID, C1D1, median, n=6, plasma, read-out: AUC0–last): 1680 ng·h/mL
- Cmax (150 mg, 150 mg BID, C1D1, median, n=6, plasma, read-out: Cmax): 208 ng/mL
- Tmax (150 mg, 150 mg BID, C1D1, median, n=6, plasma, read-out: Tmax): 2 h
- AUC (150 mg, 150 mg BID, C1D21, mean, n=6, plasma, read-out: AUC0–12): 4620 ng·h/mL
- AUC(0-t) (150 mg, 150 mg BID, C1D21, mean, n=6, plasma, read-out: AUC0–last): 9080 ng·h/mL
- Cmax (150 mg, 150 mg BID, C1D21, mean, n=6, plasma, read-out: Cmax): 527 ng/mL
- Tmax (150 mg, 150 mg BID, C1D21, mean, n=6, plasma, read-out: Tmax): 3.5 h
- AUC (150 mg, 150 mg BID, C1D21, median, n=6, plasma, read-out: AUC0–12): 4860 ng·h/mL
- AUC(0-t) (150 mg, 150 mg BID, C1D21, median, n=6, plasma, read-out: AUC0–last): 10000 ng·h/mL
- Cmax (150 mg, 150 mg BID, C1D21, median, n=6, plasma, read-out: Cmax): 549 ng/mL
- Tmax (150 mg, 150 mg BID, C1D21, median, n=6, plasma, read-out: Tmax): 2.9 h
- AUC (150 mg, QD, C1D1, read-out: AUC0–12, Mean): 946 ng·h/mL
- AUC (150 mg, QD, C1D1, read-out: AUC0–12, Median): 892 ng·h/mL
- AUC(0-t) (150 mg, QD, C1D1, read-out: AUC0–last, Mean): 1610 ng·h/mL
- AUC(0-t) (150 mg, QD, C1D1, read-out: AUC0–last, Median): 1460 ng·h/mL
- Cmax (150 mg, QD, C1D1, read-out: Cmax, Mean): 156 ng/mL
- Cmax (150 mg, QD, C1D1, read-out: Cmax, Median): 126 ng/mL
- Tmax (150 mg, QD, C1D1, read-out: Tmax, Mean): 5.5 h
